Values joined by “and” are separate entries in the source; they are usually repeats but may differ in a detail not shown here. Equal entries are not always repeated.
Columns and labels:
[1] = test system: HCT116-luc2 tumors; assay: H&E histology of tumor tissue sections; assay type: in vivo, nu/nu mice; settings: sorafenib 120 mg/kg, days 0-4 and 7-9; day 9
Experimental: Tumor tissues were fixed in 10% neutral buffered formalin, followed by routine process and embedment in paraffin. Tissue sections (5 μm) were prepared on electrostatically charged glass slides and then baked at 60°C overnight. After washing the slides with three washes in xylene, the slides were rehydrated through a series of graded ethanol (100%, 90% and 70%) to water. The prepared slides were then stained with hematoxylin and eosin.
Fig 1 Sorafenib, a tyrosine kinase inhibitor, effectively suppresses HCT116-luc2 tumor growth. Nude mice bearing subcutaneous tumors on the flanks were treated with vehicle or with 120 mg/kg of sorafenib on days 0–4 and days 7–9 via oral gavage. A: Longitudinal tumor volume measurements of subcutaneous HCT116-luc2 tumors (***p < 0.0001, n = 5 per group, two-way ANOVA, mean and s.e.m., representative of three studies) B: H&E staining of tumor tissue sections harvested from the vehicle and sorafenib-treated (120 mg/kg) tumors on day 9. […] Bar: 50 μm.

[2] = test system: HCT116-luc2 tumors; assay: TfV-750 fluorescence imaging (FLI) of tumor transferrin receptor expression; assay type: in vivo, nu/nu mice
Experimental: In addition, the imager is equipped with suitable excitation and emission filter sets for FLI of BRS-680 and TfV-750. Tumor metabolic activities were visualized by IV injection of a mixture of these two NIR imaging agents (2 nmol/mouse each in a total volume of 100 μl of PBS). The agents were injected 16 h prior to FLI imaging in order to allow optimal probe uptake and clearance of unbound probe. For the longitudinal FLI imaging studies, separate cohorts were used for FLI acquisitions on days 1 (n = 10, imaging agents injected on day 0), 2 (n = 10, injected on day 1), and 3 (n = 5, injected on day 2) due to the extended time required for probe washout. […]
(§1) BLI and FLI images were analyzed using the Living Image software (version 4.4 for Windows, PerkinElmer Inc.). Tumor BLI and FLI signals were quantified using the region of interest (ROI) tools, and the total optical signals were calculated as total flux (photon counts/sec) and total radiant efficiency [(p/s)/(μW/cm^2)], respectively. […] All PET images were represented as standard uptake value (SUV) using the VivoQuant 3.0 software and tumor-specific ^18F-FDG uptake levels were also calculated using SUVtotal. […] For each treatment group, we calculated relative tracer uptake in tumors using the day 0 uptake level as 100%. […]

[3] = test system: HCT116-luc2 tumors; assay: 18F-FDG microPET imaging of tumor glucose uptake; assay type: in vivo, nu/nu mice; settings: sorafenib 40 mg/kg daily oral gavage; days 2 and 3 post-treatment; n = 5 per group
Experimental: We also performed microPET imaging using ^18F-FDG as a tracer for detecting changes in tumor glucose uptake with or without treatment. Images were acquired using the G8 PET/CT system (PerkinElmer Inc.). For each mouse, 100 μCi of ^18F-FDG (PETNET Solutions Inc., Malvern PA) was injected intravenously (IV), and all mice were kept warm and maintained under 1.5% isoflurane gas anesthesia for 1 hour for tracer uptake. Subsequently, the mice were imaged with a standard 10 min static F-18 imaging protocol. The G8 PET/CT system automatically performed image reconstruction after acquisition and provided 3D tomography imaging in the DICOM format. We were able to image the same cohorts (n = 5) throughout the course of study since ^18F has a relative short decay half-life (~110 min). […]
as §1

[4] = test system: HCT116-luc2 tumors; assay: BLI of firefly luciferase activity (tumor viability) in HCT116-luc2 xenografts; assay type: in vivo, nu/nu mice
Experimental: Optical BLI and FLI were performed using the IVIS® SpectrumCT, which is capable of imaging multiple mice simultaneously (up to 5 mice). To generate BLI signals, the tumor-bearing mice received IP injections of 75 mg/kg of D-luciferin (potassium salt, PerkinElmer Inc.) and were placed into the imager for sequential image acquisitions (settings: FOV = D, Binning = 16, F/Stop = 1, Open filter, 2 min delay between each acquisition) under 1–2% of isoflurane anesthesia. Maximal bioluminescence output for each tumor was determined by sequentially acquiring a BLI image every two minutes for up to 16 min. Typical peak imaging time for the HCT116-luc2 subcutaneous model was approximately 10 min, and BLI images are represented in units of radiance (p/sec/cm^2/sr).
(§2) BLI and FLI images were analyzed using the Living Image software (version 4.4 for Windows, PerkinElmer Inc.). Tumor BLI and FLI signals were quantified using the region of interest (ROI) tools, and the total optical signals were calculated as total flux (photon counts/sec) and total radiant efficiency [(p/s)/(μW/cm^2)], respectively. For greater accuracy, all FLI data was corrected for background levels based on specific measurements as described in the figure legends. All PET images were represented as standard uptake value (SUV) using the VivoQuant 3.0 software and tumor-specific ^18F-FDG uptake levels were also calculated using SUVtotal. […] For each treatment group, we calculated relative tracer uptake in tumors using the day 0 uptake level as 100%. For statistical analysis, we used the GraphPad Prism software (version 6.0 for Windows, La Jolla, CA). Data are presented as the mean ± standard error of the mean (s.e.m.). Statistical analysis was conducted using ANOVA or Student’s t-test, as indicated. P < 0.05 was the cutoff for being considered statistically significant.

[5] = test system: HCT116-luc2 tumors; assay: BRS-680 fluorescence imaging (FLI) of tumor bombesin receptor expression; assay type: in vivo, nu/nu mice; settings: for inhibition of BRS-680 tumor FLI signal: sorafenib 40 mg/kg daily oral gavage
Experimental: In addition, the imager is equipped with suitable excitation and emission filter sets for FLI of BRS-680 and TfV-750. Tumor metabolic activities were visualized by IV injection of a mixture of these two NIR imaging agents (2 nmol/mouse each in a total volume of 100 μl of PBS). The agents were injected 16 h prior to FLI imaging in order to allow optimal probe uptake and clearance of unbound probe. For the longitudinal FLI imaging studies, separate cohorts were used for FLI acquisitions on days 1 (n = 10, imaging agents injected on day 0), 2 (n = 10, injected on day 1), and 3 (n = 5, injected on day 2) due to the extended time required for probe washout. […] Fluorescent signal is represented as radiant efficiency [(p/sec/cm^2/sr)/(μW/cm^2)] or normalized fluorescent signal where appropriate.
as §2, with “SUVtotal. Several similar imaging experiments were performed using this particular HCT116-luc2 tumor model to visualize treatment responses to sorafenib.” for “SUVtotal.”
Besides interfering with glycolytic activity, we believe inhibition of the Ras/Raf/MEK/ERK pathways with sorafenib has a broader, global impact on tumor energy metabolism. […] We wonder if these FLI probes can detect early, yet subtle metabolic disturbances induced by sorafenib treatment prior to the later regression of treated tumors, like we saw with ^18F-FDG PET imaging. […] Separate cohorts were used for FLI acquisitions on days 1, 2, and 3 due to the extended time required for probe washout. Of note, the day 1 cohort was re-injected with probe for imaging on day 10 to assess ultimate treatment efficacy. […]

[6] = test system: HCT116-luc2 subcutaneous xenografts; assay: Caliper tumor volume measurement of subcutaneous HCT116-luc2 xenografts
Experimental: Specific pathogen-free nu/nu (Crl:NU-Fox1^nu, 6–8 weeks old) and CD-1 (Crl:CD1[ICR]) mice were purchased from Charles River Laboratories (Wilmington, MA). Mice were housed in a controlled environment (72°F; 12:12-h light-dark cycle) under specific-pathogen free conditions with water and food provided ad libitum. To induce tumor growth, 2.5 x10^6 of HCT116-luc2 cells were subcutaneously injected on the right flank of a nude mouse. Two weeks after cancer cell inoculation, when the tumor volume reached an appropriate size (measured by caliper and calculated by the formula 0.5 x length x width^2), animals were randomized into vehicle or different sorafenib treatment groups as indicated. Sorafenib was prepared in water containing 6.2% of ethanol and 6.2% of Kolliphor EL (Sigma-Aldrich, St. Louis, MO). The treatment was given daily 5 times a week by oral gavage at 15 μl per gram of body weight.
We initiated the treatment when the average HCT116-luc2 tumor size for each group reached ~180 mm^3 in volume (day 0). The drug was given daily via oral gavage at a dosage of 120 mg/kg from days 0 to 4 and from days 7 to 9.
In this set of studies (Fig 2), treatments were initiated when the average group HCT116-luc2 tumor size reached ~100 mm^3 in volume. […] The drug was given daily, from days 0 to 4 and from days 7 to 11. In addition to the conventional tumor volume measurements by caliper, we performed BLI of firefly luciferase activity to access tumor viability on the days indicated.

[7] = Plasma pharmacokinetics of the probes, fluorescence microplate assay; assay type: in vivo; settings: CD-1 mice; 2 nmoles IV; plasma fluorescence on a microplate reader
Experimental: (§3) Selectivity was assessed in vitro using HT-29 human colorectal cells; fluorescence signal on BRS-680-labeled cells was ~7X greater than either the scrambled peptide version of the probe or when 100X unlabeled bombesin peptide was used to block labeling (S2 Fig) as assessed by both flow cytometry and fluorescence microscopy. […] Tumor tissue localization co-localized well with ex vivo anti-bombesin receptor staining (S5 Fig).
Selectivity was assessed in vitro by flow cytometry and fluorescence microscopy using HT-29 human colorectal cells; fluorescence signal on TfV-750-labeled cells was ~15X greater than when 100 μM unlabeled recombinant transferrin was used to block labeling (S7 Fig). […] Animals were bled at indicated times, and plasma fluorescence was determined using a microplate assay. […]
Blood samples were obtained via terminal cardiac puncture and plasma fluorescence was quantified on a fluorescence plate reader. […] Epifluorescence levels were determined using TrueQuant™ FMT software and are represented as Mean Fluorescence to compensate for differences in tissue size. […]
B: Quantification of tissue epifluorescence images, with data inset representing plasma pharmacokinetics assessed from serial bleeds of mice measured on a microplate fluorimeter. […]

[8] = test system: HT-29 tumors; assay: Biodistribution and in vivo imaging kinetics of the probes in HT-29 tumor-bearing mice; set-up: species or system nu/nu mice
Experimental: as §3
Selectivity was assessed in vitro by flow cytometry and fluorescence microscopy using HT-29 human colorectal cells; fluorescence signal on TfV-750-labeled cells was ~15X greater than when 100 μM unlabeled recombinant transferrin was used to block labeling (S7 Fig). […] Animals were bled at indicated times, and plasma fluorescence was determined using a microplate assay. […] The probe has good tissue penetration into tumors, as its binding pattern in tumor sections (using a 645 nm FLI surrogate to improve microscopy imaging) correlates well with the transferrin receptor expression on cancer cells and is not associated with the tumor vasculature (S10 Fig).
Blood samples were obtained via terminal cardiac puncture and plasma fluorescence was quantified on a fluorescence plate reader. […] Mice were sacrificed 24 hours post-injection and tissues were excised, rinsed with PBS, and imaged on the FMT 4000 (PerkinElmer, Waltham, MA), in epifluorescence mode. Epifluorescence levels were determined using TrueQuant™ FMT software and are represented as Mean Fluorescence to compensate for differences in tissue size. (TIF) Click here for additional data file.
Noninvasive fluorescence tomographic imaging datasets were used to quantify kinetic fluorescence changes in the tumors, heart, and liver. An optimal imaging time point of 24h was determined based on specificity of tumor signal and tumor’s signal-to-background ratio. (TIF) Click here for additional data file.
B: Quantification of tissue epifluorescence images, with data inset representing plasma pharmacokinetics assessed from serial bleeds of mice measured on a microplate fluorimeter. (TIF) Click here for additional data file.
Elevated TfV-750 signals in the liver and tumor indicate higher iron metabolism in these tissues. (TIF) Click here for additional data file.

[9] = sorafenib 120 mg/kg daily for 8 days, imaged day 9, stated for both FLI probes
[10] = sorafenib 40 mg/kg, first 3 days of treatment
[11] = sorafenib 40 mg/kg, within 2 days of treatment, n = 5 per group
[12] = HT-29 tumor-bearing mice, 2 nmol/mouse IV
[13] = HT-29 tumor-bearing nu/nu mice, 2 nmol IV, tissues excised 24 h post-injection, epifluorescence

Molecule: CNC(=O)c1cc(Oc2ccc(NC(=O)Nc3ccc(Cl)c(C(F)(F)F)c3)cc2)ccn1 [sorafenib, Sorafenib]
- tumor death in H&E stained tumor tissue sections [1]: extensive tumor death
- inhibition of TfV-750 tumor FLI signal ([2]; sorafenib 40 mg/kg daily oral gavage, day 3, n = 5): 65% and ~ 70%
- reduction in TfV-750 FLI signal as compared to controls [2, 9]: ≥ 40%
- inhibition of tumor uptake of 18F-FDG [3]: 55–60% and 50–60%
- reduction in BLI signal [4, 10]: no significant reduction
- reduction in viability (assessed by BLI) [4, 11]: no significant reduction
- BLI and tumor volume results compared with the 120 mg/kg dose ([4]; sorafenib 80 mg/kg daily, days 0-4 and 7-11): Comparable results
- suppression of tumor viability (BLI) ([4]; sorafenib 120 mg/kg daily, days 0-4 and 7-11, by day 11, n = 5 per group): ~ 90%
- reduction in tumor BLI signals ([4]; sorafenib 120 mg/kg, 2 days after the treatment began, n = 5 per group): ~ 40%
- inhibition of BRS-680 tumor FLI signal ([5]; day 2, n = 10): 40%
- inhibition of BRS-680 tumor FLI signal ([5]; day 3, n = 5): 79%
- inhibition of BRS-680 tumor signal ([5]; sorafenib 40 mg/kg, within the 2-3 day window, normalized to vehicle control): 40–80%
- reduction in BRS-680 FLI signal as compared to controls [5, 9]: ≥ 40%
- decrease of overt tumor size ([6]; sorafenib 40 mg/kg daily, by day 10, PET study cohort, n = 5 per group): ~ 50%
- growth inhibition in comparison with untreated control tumors ([6]; sorafenib 40 mg/kg, by day 10 or 11, over multiple studies): 50–90%
- reduction in tumor volume [6, 10]: no significant reduction
- reduction in size (tumor volume) [6, 11]: no significant reduction
- efficacy against tumor growth by tumor volume, versus vehicle ([6]; sorafenib 120 mg/kg oral gavage, days 0-4 and 7-9, n = 5 per group): clearly demonstrated the drug’s efficacy
- change in tumor volume ([6]; sorafenib 120 mg/kg, day 2, n = 5 per group): no significant change

Molecule: TfV-750: PEGylated recombinant transferrin with a NIR fluorescent reporter (ex/em 750/770 nm); transferrin receptor imaging probe
- circulation half-life (plasma t1/2) [7]: ~ 9 h
- optimal time for in vivo tumor imaging post injection [8, 12]: 6 to 24 h
- time to (near) complete clearance from the system [8, 12]: about 4 days
- biodistribution to tumors in collected tissues [8, 13]: good biodistribution to tumors
- route of clearance in collected tissues [8, 13]: efficient clearance via kidney excretion

Source: article PMC5549732 (PLoS ONE, 2017)
